According to publication PMC7617459, “Comparative Evaluation and Profiling of Chemical Tools for the Nuclear Hormone Receptor Family 2” (ACS pharmacology & translational science, 2025):
Read-outs that look alike come from different tables or passages of the source. Values belong to the compound of their own block, whether it stands above or below them.

Key:
[1] = tested on: HNF4α and a set of its target genes; design: method as in PMID 22840769; settings: T6PNE cells; cited from earlier work
HNF4α [2] = target: HNF4α; design: method as in PMID 22840769; settings: cited from earlier work
HNF4α [3] = target: T1, HNF4α (Homo sapiens, UniProt P41235); assay: Gal4-hybrid reporter gene assay HNF4α; settings: 3 µM, HEK293T
T1 sequence (P41235 147-377 limits assumed): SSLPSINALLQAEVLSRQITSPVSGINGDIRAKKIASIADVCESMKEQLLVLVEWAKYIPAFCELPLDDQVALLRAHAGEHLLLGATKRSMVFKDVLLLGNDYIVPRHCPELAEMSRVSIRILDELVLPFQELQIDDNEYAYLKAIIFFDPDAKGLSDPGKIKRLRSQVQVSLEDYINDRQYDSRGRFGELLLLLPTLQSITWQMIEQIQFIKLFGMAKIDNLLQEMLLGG

human insulin promoter = settings: insulin promoter assay, cited from earlier work
[4] = cited from earlier work
[5] = design: method as in PMID 31298602, PMID 30702885; settings: cited from earlier work
TLX expression = settings: cited from earlier work
[6] = microsomes; cited from earlier work
TLX-regulated genes = settings: human glioblastoma cells (T98G), qRT-PCR; cited from earlier work
TLX [7] = target: T2, TLX (Homo sapiens, UniProt Q9Y466); assay: Gal4-hybrid reporter gene assay TLX; format: cell-based; settings: selected test concentration (Figure 3)
T2 construct: encoding the hinge region and the LBD of the canonical isoform of the respective human nuclear receptors; expressed in transfected cells; host or cells: HEK293T
T2 sequence (Q9Y466 155-383 limits assumed): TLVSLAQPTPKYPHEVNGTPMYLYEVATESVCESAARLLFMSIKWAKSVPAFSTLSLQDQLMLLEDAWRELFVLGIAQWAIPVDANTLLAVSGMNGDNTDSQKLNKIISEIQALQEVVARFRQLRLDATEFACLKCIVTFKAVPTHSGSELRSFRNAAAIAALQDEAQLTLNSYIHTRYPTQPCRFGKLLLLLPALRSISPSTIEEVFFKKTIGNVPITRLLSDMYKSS

TLX [8] = settings: DSF assays; cited from earlier work
HEK293T cells = settings: cited from earlier work
TLX [9] = settings: reporter gene assay; read-out: EC50; cited from earlier work
COS-7 cells = assay: Multiplex toxicity assay; format: cell-based; settings: 24 h, at active concentration
Description: COS-7 cells (DSMZ #ACC 60) were cultured at 37°C and 5% CO2 in DMEM high glucose medium supplemented with sodium pyruvate (1 mM), penicillin (100 U/mL), streptomycin (100 µg/mL), and 10% fetal calf serum (FCS). After aspirating the wells, the cells were seeded at 1x10^5 cells per well in complete culture medium. […] Each sample was prepared in at least 4 biologically independent replicates. After incubation for 24 h, the wells were aspirated and incubated for 30 min with stimulation medium containing 1 µM NucView® 405 fluorogenic caspase-3 substrate (#10405, Biotium, Fremont, USA) and Live-or-Dye Nuc-Fix Red (0.05x, Biotium, Inc., Fremont, CA, 1691 USA) to detect apoptosis and necrosis, respectively. After incubation, a total of 6 fluorescence images per well at 10x magnification were taken to detect NucView®-positive (Ex: 381–400 nm, Em: 414–450 nm) and Live-or-Dye-positive cells (Ex: 543−566 nm, Em: 580−611 nm) using on a Tecan Spark Cyto (Tecan Group AG). Reference readings for background correction and detection of auto-fluorescence were taken at 414–450 nm prior to staining. Thereafter, wells were aspirated, the cells were incubated for 3 h with 90 µL culture medium (0.2% FCS) and 10 µL Cell Counting Kit-8 solution (CCK-8, MedChem Express #HY-K0301), and absorbance was measured at 1, 2, and 3h of incubation at 450 nm on a Tecan Spark Cyto to assess metabolic activity of the cells. Before drug administration, after the first medium exchange, 24 h after drug administration, and after fluorescence imaging cell confluence was assessed using the Tecan Spark Cyto, to account for changes in cell confluence due to drug administration and cell handling. The number of apoptotic cells, metabolic activity, and changes in cell confluence in response to drug treatment were all normalized to the vehicle control of each biological replicate individually.

Gal4-VP16 = tested on: Gal4-VP16; design: method as in PMID 16834531; settings: cited from earlier work
rhodopsin expression = tested on: rhodopsin expression; design: method as in PMID 29148976, PMID 27893103; settings: cited from earlier work; for rhodopsin expression: murine retinal cells, immunofluorescence and qRT-PCR
ATF6 = ATF6 activity assay; format: cell-based; settings: tunicamycin treated Hela ATF6 reporter cells
Source text: Next, we evaluated the potential impact of the NR2 modulator set on endoplasmic reticulum (ER) stress in an ATF6 activity assay (Fig. 4b). The activating transcription factor 6 (ATF6) participates in the unfolded protein response and is activated under ER stress.[164] Tunicamycin-induced ATF6 activity was not affected by RXR and TLX modulators but was reduced by the inverse PNR agonists 22 and 23.
Hela cells containing a Renilla luciferase reporter gene for ATF6 activity (ATF6 Leeporter™ Luciferase Reporter-HeLa Cell Line, Abeomics Inc.; #14-138ACL) were cultured in DMEM supplemented with 10% heat-inactivated FCS, penicillin (100 U/mL), streptomycin (100 μg/mL) and puromycin (3 µg/mL) at 37°C and 5% (v/v) CO2 and seeded in 96-well plates (1 × 10^5 per well). After 24 h, the cells were incubated with the test compounds solubilized with 0.1% DMSO in the same medium without puromycin. After 4 h of incubation, tunicamycin (100 ng/mL) was added. After another 18 h of incubation, cells were assayed for renilla luminescence using DualGlo reagent (Promega) on a Tecan SPARK Cyto (Tecan). Test samples were normalized to the 0.1% DMSO control.

PNR [10] = settings: reporter gene assay; cited from earlier work
nuclear receptors = assay: Selectivity profiling in Gal4-hybrid reporter gene assay panel; format: cell-based, human; settings: at active concentration
Description: Compounds were tested at concentrations around EC90 according to the literature or at the highest nontoxic concentration (from the multiplex toxicity assay). […] (b) Selectivity profiling of NR2 modulators in a representative panel of nuclear receptors outside the NR2 family. […] Effects <5% of the respective reference ligands were considered as not relevant and omitted. Only effects are shown that are statistically significant against VP16 ctrl (Figure S3); n = 3.

PNR (NR2E3) = target: T3, PNR (NR2E3) (Homo sapiens, UniProt Q9Y5X4); assay: Gal4-hybrid reporter gene assay PNR; format: cell-based; settings: selected test concentration (Figure 3)
T3 construct: encoding the hinge region and the LBD of the canonical isoform of the respective human nuclear receptors; expressed in transfected cells; host or cells: HEK293T
T3 sequence (Q9Y5X4 169-410 limits assumed): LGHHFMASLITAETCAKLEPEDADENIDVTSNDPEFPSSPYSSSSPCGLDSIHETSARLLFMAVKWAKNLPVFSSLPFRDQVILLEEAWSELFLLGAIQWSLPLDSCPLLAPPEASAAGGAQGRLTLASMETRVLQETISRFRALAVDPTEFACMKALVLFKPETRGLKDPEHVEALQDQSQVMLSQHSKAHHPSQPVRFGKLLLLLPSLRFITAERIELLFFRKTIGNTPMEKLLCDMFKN
Description: Gal4-hybrid reporter gene assays were performed as described previously using the plasmids pFA-CMV-hTHRα-LBD,[170] pFA-CMV-hRARα-LBD,[171] pFA-CMV-hPPARα-LBD,[172] pFA-CMV-hPPARγ-LBD,[172] pFA-CMV-hPPARδ-LBD,[172] pFA-CMV-revERBα-LBD,[158] pFA-CMV-hRORα-LBD,[173] pFA-CMV-hLXRα-LBD,[118] pFA-CMV-hFXR-LBD,[174] pFA-CMV-hVDR-LBD,[171] pFA-CMV-hCAR-LBD,[171] pFA-CMV-hHNF4α-LBD,[110] pFA-CMV-hRXRα-LBD,[175] pFA-CMV-hTR2-LBD,[102] pFA-CMV-hTR4-LBD,[102] pFA-CMV-hTLX-LBD,[102] pFA-CMV-hNR2E3-LBD,[102] pFA-CMV-hNur77-LBD,[176] pFA-CMV-hSF1-LBD[158] encoding the hinge region and the LBD of the canonical isoform of the respective human nuclear receptors. pFR-Luc (Stratagene, La Jolla, CA, USA) was used as a reporter plasmid, and pRL-SV40 (Promega, Madison, WI, USA) was used for normalization of transfection efficiency and cell growth. HEK293T cells (German Collection of Microorganisms and Cell Culture GmbH, DSMZ) were cultured in Dulbecco’s modified Eagle’s medium (DMEM), high glucose supplemented with 10% fetal calf serum (FCS), sodium pyruvate (1 mM), penicillin (100 U/mL), and streptomycin (100 μg/mL) at 37 °C and 5% CO2 and seeded in 96-well plates (3 × 10^4 cells/well). The medium was changed to Opti-MEM without supplements, and the cells were transiently transfected with one pFA-CMV-hNR-LBD clone, pFR-Luc, and pRL-SV40 using Lipofectamine LTX reagent (Invitrogen, Thermo Fisher Scientific) according to the manufacturer’s instructions. Five hours after transfection, cells were incubated with the test compounds in Opti-MEM supplemented with penicillin (100 U/mL), streptomycin (100 μg/mL), and 0.1% DMSO. Each sample was set up in duplicates and tested in at least three independent experiments. After 16 h incubation, luciferase activity was measured using the Dual-Glo Luciferase Assay System (Promega) according to the manufacturer’s protocol on a Tecan Spark luminometer (Tecan Deutschland GmbH, Crailsheim, Germany). Firefly luminescence was divided by Renilla luminescence and multiplied by 1000 resulting in relative light units (RLUs) to normalize for transfection efficiency and cell growth. Fold activation was obtained by dividing the mean RLU of the test compound by the mean^a RLU of the untreated control, and relative activation was calculated by dividing the fold activation of a test sample by the fold activation of the respective reference agonist. Antagonistic effects were evaluated by coincubation of the test compound with the respective reference ligand.

PNR [11] = target: PNR; design: method as in PMID 29148976; settings: ITC, cited from earlier work
NR2E3 = tested on: NR2E3; design: method as in PMID 16879962; settings: reporter gene assay, cited from earlier work
COUP-TF2 = tested on: COUP-TF2; design: method as in PMID 32494682; settings: reporter gene assay; cited from earlier work
[12] = tested on: COUP-TF2 target genes FOXM1 and CDK1; design: method as in PMID 32494682; settings: prostate cancer cells; cited from earlier work
[13] = tested on: HNF4α, RXRα, PPARα, LXRα, GR, PR, ER, RAR, RORγ, AR, and COUP-TF1; design: method as in PMID 32494682; settings: cited from earlier work

effects on HNF4 activity (HNF4α [3]): no effects
Structure (SMILES): Cc1nc2ccccc2n1S(=O)(=O)c1cc([N+](=O)[O-])ccc1Cl [compound 1]
expression of HNF4α and a set of its target genes [1]: suppress the expression
Kd (HNF4α [2]; Try/Trp fluorescence quenching assays): 12 nM
EC50 (HNF4α [2]; direct binding, read-out: EC50 of quenching of intrinsic Tyr/Trp fluorescence of HNF4α): 11.9 nM
IC50 (human insulin promoter): 900 nM
IC50 (human insulin promoter; listed as BIM5078 (1)): 930 nM

Structure (SMILES): C=C(c1ccc(C(=O)O)cc1)c1cc2c(cc1C)C(C)(C)CCC2(C)C [compound 6, bexarotene]
adverse effects associated with clinical use [4]: elevated triglyceride and cholesterol levels, leukopenia, hypothyroidism, and an increased risk of acute pancreatitis
lipophilicity [5]: highly lipophilic

TLX modulation (TLX [7]): not observed
Structure (SMILES): Cc1cc(C(=O)N2CCN(C(c3ccccc3)c3ccccc3)CC2)nn1C [compound 15]
TLX expression (TLX expression): not affected
t1/2 against microsomal degradation [6]: < 15 min
SIRT, SLC1a1 and p21 induction (TLX-regulated genes): trend toward SIRT and SLC1a1 but not p21 induction
Kd (TLX [8]): 650 nM
toxicity in WST-1 assay (HEK293T cells): Low toxicity
EC50 (TLX [9]): 1000 nM

Structure (SMILES): Cc1cc(C)cc(NC(=O)CCc2nc3sc4c(c3c(=O)[nH]2)CCCC4)c1 [compound 22]
cytotoxicity (COS-7 cells): lack of cytotoxicity
activity in control experiments using Gal4-VP16 (Gal4-VP16): inactive
rhodopsin expression (rhodopsin expression): dose-dependent reduction
tunicamycin-induced ATF6 activity (ATF6): reduced
IC50 (PNR [10]): 250 nM
selectivity over other nuclear receptors (nuclear receptors): Favorable selectivity profiles
PNR modulation (PNR (NR2E3)): confirmed albeit with rather low efficacy

Structure (SMILES): COc1cc2nc(CN3CC=C(c4ccccc4)CC3)nc(O)c2cc1OC [compound 23]
cytotoxicity (COS-7 cells): lack of cytotoxicity
activity in control experiments using Gal4-VP16 (Gal4-VP16): inactive
Rho mRNA expression (rhodopsin expression): decreased
rhodopsin expression (rhodopsin expression): dose-dependent reduction
tunicamycin-induced ATF6 activity (ATF6): reduced
Kd (PNR [11]): 67000 nM
Kd (PNR [11]; listed as Photoregulin3 (23)): 64000 nM
IC50 (PNR [10]): 70 nM
selectivity over other nuclear receptors (nuclear receptors): Favorable selectivity profiles
PNR modulation (PNR (NR2E3)): confirmed albeit with rather low efficacy

Structure (SMILES): O=C(Nc1ccc(-c2nc3ccc(NC(=O)C4CC4)cc3[nH]2)cc1)c1ccccc1Cl [compound 24]
EC50 (NR2E3; read-out: EC50 (first value of cell)): 141 nM
EC50 (NR2E3; read-out: EC50 (second value of cell)): 35 nM

Structure (SMILES): COc1ccc(CCNc2ncnc3sccc23)cc1OC [compound 28]
IC50 (COUP-TF2): 2800 nM
expression of COUP-TF2 target genes FOXM1 and CDK1 [12]: altered expression
interaction with related NRs in pulldown assay [13]: no relevant interaction
